Source: US8586588B2, “Aryl pyridazinone derivatives and their use as H3 receptor ligands” (Cephalon, Inc., priority 2006, dated 2013)
Counter-ions that a name gives are not always drawn.

Q: Which melting point does the source give for `Cc1cc(-c2ccc(OCCCN3CCCCC3)cc2)nn(Cc2ccccc2)c1=O` (as salt: HCl) [Example 44, 2-Benzyl-4-methyl-6-[4-(3-piperidin-1-yl-propoxy)-phenyl]-2H-pyridazin-3-one] here?
A: 232 to 233 °C

Q: With `C[C@@H]1CCCN1CCCOc1ccc(-c2cc(Cc3ccccc3)c(=O)n(C)n2)cc1` (as salt: HCl) [Example 45, 4-Benzyl-2-methyl-6-{4-[3-((R)-2-methyl-pyrrolidin-1-yl)-propoxy]-phenyl}-2H-pyridazin-3-one] as the compound, how does the melting point read?
A: 232 to 233 °C

Q: Which melting point does the source give for `Cn1nc(-c2ccc(OCCCN3CCCCC3)cc2)cc(Cc2ccccc2)c1=O` (as salt: HCl) [Example 46, 4-Benzyl-2-methyl-6-[4-(3-piperidin-1-yl-propoxy)-phenyl]-2H-pyridazin-3-one] here?
A: 186 to 187 °C

Q: With `C[C@@H]1CCCN1CCCOc1ccc(-c2nn(C)c(=O)cc2-c2ccccc2)cc1` (as salt: HCl) [Example 47, 2-Methyl-6-{4-[3-((R)-2-methyl-pyrrolidin-1-yl)-propoxy]-phenyl}-5-phenyl-2H-pyridazin-3-one] as the compound, how does the melting point read?
A: 207 to 209 °C

Q: Which melting point does the source give for `Cn1nc(-c2ccc(OCCCN3CCCCC3)cc2)c(-c2ccccc2)cc1=O` (as salt: HCl) [Example 48, 2-Methyl-5-phenyl-6-[4-(3-piperidin-1-yl-propoxy)-phenyl]-2H-pyridazin-3-one] here?
A: 212 to 214 °C

Q: For `C[C@@H]1CCCN1CCCOc1ccc(-c2nn(C)c(=O)c3ccccc23)cc1` (as salt: HCl) [Example 49, 2-Methyl-4-{4-[3-((R)-2-methyl-pyrrolidin-1-yl)-propoxy]-phenyl}-2H-phthalazin-1-one], which melting point is on record?
A: 216 to 217 °C

Q: For `Cn1nc(-c2ccc(OCCN3CCCCC3)cc2)c2ccccc2c1=O` (as salt: HCl) [Example 51, 2-Methyl-4-[4-(2-piperidin-1-yl-ethoxy)-phenyl]-2H-phthalazin-1-one], which melting point is on record?
A: 253 to 254 °C

Q: For `Cn1nc(-c2ccc(OCCCN3CCCC3)cc2)c2ccccc2c1=O` (as salt: HCl) [Example 52, 2-Methyl-4-[4-(3-pyrrolidin-1-yl-propoxy)-phenyl]-2H-phthalazin-1-one], which melting point is on record?
A: 201 to 203 °C

Q: With `Cn1nc(-c2ccc(OCCCN3CCCCCC3)cc2)c2ccccc2c1=O` (as salt: HCl) [Example 53, 4-[4-(3-Azepan-1-yl-propoxy)-phenyl]-2-methyl-2H-phthalazin-1-one] as the compound, how does the melting point read?
A: 238 to 240 °C

Q: With `C[C@@H]1CCCN1CCCOc1ccc(-c2nn(Cc3ccc(Cl)cc3)c(=O)c3ccccc23)cc1` (as salt: HCl) [Example 54, 2-(4-Chloro-benzyl)-4-{4-[3-((R)-2-methyl-pyrrolidin-1-yl)-propoxy]-phenyl}-2H-phthalazin-1-one] as the compound, how does the melting point read?
A: 217 to 218 °C

Q: For `O=c1c2ccccc2c(-c2ccc(OCCCN3CCCCC3)cc2)nn1Cc1ccc(Cl)cc1` (as salt: HCl) [Example 55, 2-(4-Chloro-benzyl)-4-[4-(3-piperidin-1-yl-propoxy)-phenyl]-2H-phthalazin-1-one], which melting point is on record?
A: 216 to 217 °C

Q: With `Cn1nc(-c2ccc(OCCCN3CCCCC3)cc2)c2c(c1=O)CCC2` (as salt: HCl) [Example 57, 2-Methyl-4-[4-(3-piperidin-1-yl-propoxy)-phenyl]-2,5,6,7-tetrahydro-cyclopenta[d]pyridazin-1-one] as the compound, how does the melting point read?
A: 214 to 216 °C

Q: For `C[C@@H]1CCCN1CCCOc1ccc(C2=NN(C)C(=O)C3CCCC23)cc1` (stereo partly drawn) (as salt: HCl) [Example 58, 2-Methyl-4-{4-[3-((R)-2-methyl-pyrrolidin-1-yl)-propoxy]-phenyl}-2,4a,5,6,7,7a-hexahydro-cyclopenta[d]pyridazin-1-one], which melting point is on record?
A: < 50 °C

Q: With `CN1N=C(c2ccc(OCCCN3CCCCC3)cc2)C2CCCC2C1=O` (centres unmarked) (as salt: HCl) [Example 59, 2-Methyl-4-[4-(3-piperidin-1-yl-propoxy)-phenyl]-2,4a,5,6,7,7a-hexahydro-cyclopenta[d]pyridazin-1-one] as the compound, how does the melting point read?
A: < 50 °C

Q: With `C[C@@H]1CCCN1CCCOc1ccc(-c2nn(C)c(=O)c3c2CCCC3)cc1` (as salt: HCl) [Example 60, 2-Methyl-4-{4-[3-((R)-2-methyl-pyrrolidin-1-yl)-propoxy]-phenyl}-5,6,7,8-tetrahydro-2H-phthalazin-1-one] as the compound, how does the melting point read?
A: 156 to 158 °C

Q: With `Cn1nc(-c2ccc(OCCCN3CCCCC3)cc2)c2c(c1=O)CCCC2` (as salt: HCl) [Example 61] as the compound, how does the melting point read?
A: 196 to 198 °C

Q: For `Cn1nc(-c2ccc(OCC3CCNCC3)cc2)c2ccccc2c1=O` (as salt: HCl) [Example 63, 2-Methyl-4-[4-(piperidin-4-ylmethoxy)-phenyl]-2H-phthalazin-1-one], which melting point is on record?
A: 207 to 209 °C

Q: Which melting point does the source give for `Cn1nc(-c2ccc(OCC3CCN(C4CCC4)CC3)cc2)c2ccccc2c1=O` (as salt: HCl) [Example 64, 4-[4-(1-Cyclobutyl-piperidin-4-ylmethoxy)-phenyl]-2-methyl-2H-phthalazin-1-one] here?
A: 256 to 257 °C

Q: Which melting point does the source give for `Cn1nc(-c2ccc(OCC3CCNCC3)cc2)ccc1=O` (as salt: HCl) [Example 66, 2-Methyl-6-[4-(piperidin-4-ylmethoxy)-phenyl]-2H-pyridazin-3-one] here?
A: 249 to 251 °C

Q: With `Cn1nc(-c2ccc(OCC3CCN(C4CCC4)CC3)cc2)ccc1=O` (as salt: HCl) [Example 67, 6-[4-(1-Cyclobutyl-piperidin-4-ylmethoxy)-phenyl]-2-methyl-2H-pyridazin-3-one] as the compound, how does the melting point read?
A: 250 to 252 °C

Q: For `CC(C)N1CCC(COc2ccc(-c3ccc(=O)n(C)n3)cc2)CC1` (as salt: HCl) [Example 68, 6-[4-(1-Isopropyl-piperidin-4-ylmethoxy)-phenyl]-2-methyl-2H-pyridazin-3-one], which melting point is on record?
A: 187 to 189 °C

Q: Which melting point does the source give for `Cn1nc(-c2ccc(OCC3CCN(CC4CC4)CC3)cc2)ccc1=O` (as salt: HCl) [Example 69, 6-[4-(1-Cyclopropylmethyl-piperidin-4-ylmethoxy)-phenyl]-2-methyl-2H-pyridazin-3-one] here?
A: 230 to 231 °C

Q: Which melting point does the source give for `Cn1nc(-c2ccc(OCC3CCN(C4CCCC4)CC3)cc2)ccc1=O` (as salt: HCl) [Example 70, 6-[4-(1-Cyclopentyl-piperidin-4-ylmethoxy)-phenyl]-2-methyl-2H-pyridazin-3-one] here?
A: 250 to 251 °C

Q: Which melting point does the source give for `CN1CCC(COc2ccc(-c3ccc(=O)n(C)n3)cc2)CC1` (as salt: HCl) [Example 71, 2-Methyl-6-[4-(1-methyl-piperidin-4-ylmethoxy)-phenyl]-2H-pyridazin-3-one] here?
A: 257 to 258 °C

Q: With `CC(C)N1CCC(Oc2ccc(-c3ccc(=O)n(C)n3)cc2)CC1` (as salt: HCl) [Example 72] as the compound, how does the melting point read?
A: 108 to 110 °C

Q: With `C[C@@H]1CCCN1CCCOc1ccc2c(c1)CCc1cc(=O)n(-c3ccccc3)nc1-2` (as salt: HCl) [Example 76, 8-[3-((R)-2-Methyl-pyrrolidin-1-yl)-propoxy]-2-phenyl-5,6-dihydro-2H-benzo[h]cinnolin-3-one] as the compound, how does the melting point read?
A: 140 to 142 °C

Q: For `Cn1ncc2ccc(OCCCN3CCCCC3)cc2c1=O` (as salt: HCl) [Example 80, 2-Methyl-7-(3-piperidin-1-yl-propoxy)-2H-phthalazin-1-one], which melting point is on record?
A: 251 to 252 °C

Q: With `C[C@@H]1CCCN1CCCOc1ccc(-c2ccc(=O)n(-c3ccccc3)n2)cc1F` (as salt: HCl) [Example 81, 6-{3-Fluoro-4-[3-((R)-2-methyl-pyrrolidin-1-yl)-propoxy]-phenyl}-2-phenyl-2H-pyridazin-3-one] as the compound, how does the melting point read?
A: 190 to 191 °C

Q: For `C[C@@H](COc1ccc(-c2ccc(=O)n(C)n2)cc1)CN1CCC[C@H]1C` (as salt: HCl) [Example 82, 2-Methyl-6-{4-[(R)-2-methyl-3-((R)-2-methyl-pyrrolidin-1-yl)-propoxy]-phenyl}-2H-pyridazin-3-one], which melting point is on record?
A: 76 to 78 °C

Q: With `Cc1nn(C)c(=O)cc1-c1ccc(OCCCN2CCC[C@H]2C)cc1` (as salt: HCl) [Example 86, 2,6-Dimethyl-5-{4-[3-((R)-2-methyl-pyrrolidin-1-yl)-propoxy]-phenyl}-2H-pyridazin-3-one] as the compound, how does the melting point read?
A: 176 to 178 °C

Q: Which melting point does the source give for `O=c1cc(-c2ccc(OCCCN3CCCCC3)cc2)cnn1-c1ccccn1` (as salt: HCl) [Example 95, 5-[4-(3-Piperidin-1-yl-propoxy)-phenyl]-2-pyridin-2-yl-2H-pyridazin-3-one] here?
A: 266 to 268 °C

Q: For `O=c1cc(-c2ccc(OCCCN3CCCCCC3)cc2)cnn1-c1ccccn1` (as salt: HCl) [Example 96, 5-[4-(3-Azepan-1-yl-propoxy)-phenyl]-2-pyridin-2-yl-2H-pyridazin-3-one], which melting point is on record?
A: 230 to 232 °C

Q: With `Cc1n[nH]c(=O)cc1-c1ccc(OC2CCN(C3CCC3)CC2)cc1` (as salt: HCl) [Example 103, 5-[4-(1-Cyclobutyl-piperidin-4-yloxy)-phenyl]-6-methyl-2H-pyridazin-3-one] as the compound, how does the melting point read?
A: 296 to 297 °C

Q: For `Cc1nn(-c2ccsc2)c(=O)cc1-c1ccc(OC2CCN(C3CCC3)CC2)cc1` (as salt: HCl) [Example 107, 5-[4-(1-Cyclobutyl-piperidin-4-yloxy)-phenyl]-6-methyl-2-thiophen-3-yl-2H-pyridazin-3-one], which melting point is on record?
A: 277 to 279 °C

Q: Which melting point does the source give for `Cc1nn(-c2ccsc2)c(=O)cc1-c1ccc(OCCCN2CCC[C@H]2C)cc1` (as salt: HCl) [Example 108, 6-Methyl-5-{4-[3-((R)-2-methyl-pyrrolidin-1-yl)-propoxy]-phenyl}-2-thiophen-3-yl-2H-pyridazin-3-one] here?
A: 212 to 213 °C

Q: Which melting point does the source give for `CC1CC(c2ccc(OC3CCN(C4CCC4)CC3)cc2)=NNC1=O` (centres unmarked) (as salt: HCl) [Example 116, 6-[4-(1-Cyclobutyl-piperidin-4-yloxy)-phenyl]-4-methyl-4,5-dihydro-2H-pyridazin-3-one] here?
A: 257 to 259 °C

Q: For `C[C@@H]1CCCN1CCCOc1ccc(-c2ccc(=O)[nH]n2)cc1F` (as salt: HCl) [Example 119, 6-{3-Fluoro-4-[3-((R)-2-methyl-pyrrolidin-1-yl)-propoxy]-phenyl}-2H-pyridazin-3-one], which melting point is on record?
A: 252 to 253 °C

Q: For `O=c1ccc(-c2ccc(OCCCN3CCCCC3)c(F)c2)n[nH]1` (as salt: HCl) [Example 120, 6-[3-Fluoro-4-(3-piperidin-1-yl-propoxy)-phenyl]-2H-pyridazin-3-one], which melting point is on record?
A: 240 to 242 °C
